Here are results for 7 compounds from ChEMBL document CHEMBL3870357, “2-Hydroxypyridine-N-oxide-Embedded Aurones as Potent Human Tyrosinase Inhibitors” (ACS Med Chem Lett, 2017).

Series [1] has as its target T1, Tyrosinase (Homo sapiens, UniProt P14679).
T1 sequence (P14679 whole entry): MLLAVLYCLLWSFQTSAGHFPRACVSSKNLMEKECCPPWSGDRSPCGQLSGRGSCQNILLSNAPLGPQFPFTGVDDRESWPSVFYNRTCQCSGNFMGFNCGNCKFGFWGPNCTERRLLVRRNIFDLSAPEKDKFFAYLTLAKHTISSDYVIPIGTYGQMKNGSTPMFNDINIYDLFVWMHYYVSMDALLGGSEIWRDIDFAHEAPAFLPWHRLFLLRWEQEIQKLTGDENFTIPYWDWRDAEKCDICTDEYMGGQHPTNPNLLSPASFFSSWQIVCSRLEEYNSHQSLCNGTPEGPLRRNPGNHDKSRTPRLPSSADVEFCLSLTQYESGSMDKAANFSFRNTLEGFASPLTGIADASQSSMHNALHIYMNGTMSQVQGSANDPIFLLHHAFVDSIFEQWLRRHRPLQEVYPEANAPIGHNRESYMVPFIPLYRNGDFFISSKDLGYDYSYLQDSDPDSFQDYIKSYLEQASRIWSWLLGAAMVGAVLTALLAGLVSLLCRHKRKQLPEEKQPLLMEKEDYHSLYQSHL
Kind of series: Inhibition of tyrosinase in human MNT1 cell lysate pretreated prior to addition of L-DOPA as substrate measured after 3 hrs. The series is classed as cell-based.

The target of series [2] is T1, Tyrosinase. Description: Inhibition of tyrosinase in human MNT1 cells assessed as suppression of melanin biosynthesis measured after 96 hrs. The series is classed as cell-based.
Series [3] in a line: Cytotoxicity against human MNT1 cells.
For series [4], the target named is T2, Tyrosinase (Homo sapiens) (UniProt P14679).
T2 sequence (whole entry): T1 sequence (P14679 whole entry)
Particulars: Sf9.

The nature of series [5]: Inhibition of mushroom TyM1 preincubated for 5 mins followed by addition of L-DOPA as substrate measured for 5 mins by spectroscopic method. Details: species or system Agaricus bisporus.
The target of series [6] is T1, Tyrosinase. Description: Inhibition of recombinant human tyrosinase expressed in baculovirus infected Sf9 cells assessed as diphenolase activity using L-DOPA as substrate by UV-vis spectrophotometry.

For orientation: IC50 means the point on the concentration scale where inhibition reaches its midpoint. Regarding `O=C1/C(=C/c2ccc(=O)n(O)c2)Oc2cc(O)cc(O)c21`, the values for the IC50 (at Tyrosinase [1]; at Tyrosinase [2]; in series [3]) were 34 µM, 119 µM and above 500 µM, respectively. This compound came in with a Kic in series [4] of 1.2 µM.

Regarding `O=C1/C(=C/c2ccc(=O)n(O)c2)Oc2cccc(O)c21`, the results for the IC50 (at Tyrosinase [1]; at Tyrosinase [2]; in series [3]) were 30 µM, 120 µM and 80 µM, respectively. This compound also yielded a Kic in series [4] of 1.02 µM.

`O=C1/C(=C/c2ccc(O)cc2O)Oc2cc(O)cc(O)c21` came in with a 50% inhibitory concentration (IC50) in series [5] of 300 µM.

By Ki is commonly meant the dissociation constant of the complex between target and ligand, obtained from inhibition or displacement. `O=C1/C(=C/c2ccc(=O)n(O)c2)Oc2cc(O)ccc21`: the half-inhibitory concentration (IC50) in series [5] is 1.5 µM; at Tyrosinase [1], 16.6 µM; on Tyrosinase [2], 85.3 µM; in series [3] it was above 500 µM. On Tyrosinase [6], the Ki came to 0.35 µM.

As to `O=C1/C(=C/c2ccc(O)cc2O)Oc2cccc(O)c21`, the IC50 in series [5] was 9 µM.

Take `O=C1/C(=C/c2ccc(O)cc2O)Oc2cc(O)ccc21`: the IC50 in series [5] is above 1000 µM.

For `O=c1cc(CO)occ1O` [KOJIC ACID], in series [3], the 50% inhibitory concentration (IC50) was above 80000 µM.
